Measured values reported in patent US20170050957A1, “4-AMINO-6-(HETEROCYCLIC)PICOLINATES AND 6-AMINO-2-(HETEROCYCLIC)PYRIMIDINE-4-CARBOXYLATES AND THEIR USE AS HERBICIDES” (Dow AgroSciences LLC, priority 2013, published 2017).
Like-named read-outs stand apart in the source and are kept apart here.

Key:
[1] = tested on: Key Grass and Sedge Weeds as well as Grass Crops; test: Post-emergent Test II herbicidal activity (Table 16); assay type: in vivo; details: post-emergence, 336 h, 14 days after application; for pest or weed control at 35 g/ha: 35 g ai/ha; for pest or weed control at 70 g/ha: 70 g ai/ha; for pest or weed control at 140 g/ha: 140 g ai/ha
Summary of the method: (§1)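 Visual injury rating (0 = none, 100% = complete kill) made 14 d after treatment, relative to untreated plants. Compounds in an acetone/DMSO/aqueous crop-oil/surfactant spray, at top rate and serial 1/2×-1/16× rates, were applied at 187 L/ha overhead to first-second true leaf plants raised 7-21 d in greenhouse.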

[2] = tested on: Key Broadleaf Weed and Crop Species; test: Post-emergent Test II herbicidal activity (Table 15); assay type: in vivo; details: post-emergence, 336 h, 14 d; for pest or weed control at 35 g/ha: 35 g ai/ha; for pest or weed control at 70 g/ha: 70 g ai/ha; for pest or weed control at 140 g/ha: 140 g ai/ha
Summary of the method: as §1

[3] = Echinochloa crus-galli, barnyardgrass (Echinochloa crus-galli), read-out: Visual Growth Reduction (%) 14 Days After Application ECHCG
[4] = Oryza sativa, rice (Oryza sativa), read-out: Visual Growth Reduction (%) 14 Days After Application ORYSA
[5] = Setaria faberi, giant foxtail (Setaria faberi), read-out: Visual Growth Reduction (%) 14 Days After Application SETFA
[6] = Triticum aestivum, wheat, spring (Triticum aestivum), read-out: Visual Growth Reduction (%) 14 Days After Application TRZAS
[7] = Zea mays, maize, corn (Zea mays), read-out: Visual Growth Reduction (%) 14 Days After Application ZEAMX
[8] = Abutilon theophrasti, velvetleaf (Abutilon theophrasti), read-out: Visual Growth Reduction (%) 14 Days After Application, ABUTH
[9] = Amaranthus retroflexus, redroot pigweed (Amaranthus retroflexus), read-out: Visual Growth Reduction (%) 14 Days After Application, AMARE
[10] = Brassica napus, oilseed rape, canola (Brassica napus), read-out: Visual Growth Reduction (%) 14 Days After Application, BRSNN
[11] = Chenopodium album, lambsquarters (Chenopodium album), read-out: Visual Growth Reduction (%) 14 Days After Application, CHEAL
[12] = Helianthus annuus, sunflower (Helianthus annuus), read-out: Visual Growth Reduction (%) 14 Days After Application, HELAN

COC(=O)c1nc(-c2ccc3ocnc3c2)c(F)c(N)c1Cl [Compound 5.01]
95 to 100%: pest or weed control at 70 g/ha [2, 10] | pest or weed control at 140 g/ha [2, 10] | pest or weed control at 70 g/ha ([2]; Euphorbia heterophylla, wild poinsettia (Euphorbia heterophylla), read-out: Visual Growth Reduction (%) 14 Days After Application, EPHHL) | pest or weed control at 140 g/ha [2, 12]
75 to 84%: pest or weed control at 35 g/ha [1, 3] | pest or weed control at 70 g/ha [1, 3] | pest or weed control at 35 g/ha [2, 9]
85 to 94%: pest or weed control at 140 g/ha [1, 3] | pest or weed control at 70 g/ha [2, 9] | pest or weed control at 140 g/ha [2, 9] | pest or weed control at 35 g/ha [2, 10] | pest or weed control at 70 g/ha [2, 11] | pest or weed control at 140 g/ha [2, 11] | pest or weed control at 35 g/ha [2, 12] | pest or weed control at 70 g/ha [2, 12]
0 to 29%: pest or weed control at 35 g/ha [1, 4] | pest or weed control at 70 g/ha [1, 4] | pest or weed control at 140 g/ha [1, 4] | pest or weed control at 35 g/ha [1, 5] | pest or weed control at 70 g/ha [1, 5] | pest or weed control at 140 g/ha [1, 5] | pest or weed control at 35 g/ha [1, 6] | pest or weed control at 70 g/ha [1, 6] | pest or weed control at 140 g/ha [1, 6] | pest or weed control at 35 g/ha [1, 7] | pest or weed control at 70 g/ha [1, 7] | pest or weed control at 140 g/ha [1, 7]
60 to 74%: pest or weed control at 35 g/ha [2, 8] | pest or weed control at 70 g/ha [2, 8] | pest or weed control at 140 g/ha [2, 8] | pest or weed control at 35 g/ha [2, 11]
